Experimental findings from patent US11124550B2, “Proteinaceous molecules and methods of use” (priority 2015, dated 2021) are described below.

The conditions of this series: after 72 hours, 37° C., 1 μM.

SMILES strings stand for the structures.

Turning to `CC[C@H](C)[C@@H]1NC(=O)[C@H](CCCNC(=N)N)NC(=O)[C@H](CC(=O)O)NC(=O)[C@H](CCSC)NC(=O)[C@H](CCCNC(=N)N)NC(=O)CNC(=O)CNC(=O)[C@H](Cc2ccccc2)NC(=O)[C@@H](NC(=O)[C@H](CO)NC(=O)[C@H](CO)NC(=O)[C@H](CCCNC(=N)N)NC(=O)[C@H](CCCNC(=N)N)NC(=O)[C@H](CC(C)C)NC(=O)[C@@H](N)CO)CSSC[C@@H](C(=O)N[C@@H](CC(N)=O)C(=O)N[C@@H](CO)C(=O)N[C@@H](Cc2ccccc2)C(=O)N[C@@H](CCCNC(=N)N)C(=O)N[C@@H](Cc2ccc(O)cc2)C(=O)O)NC(=O)CNC(=O)[C@H](CC(C)C)NC(=O)CNC(=O)[C@H](CO)NC(=O)[C@H](CCC(N)=O)NC(=O)[C@H](C)NC(=O)CNC1=O` [hANP], the “peptide remaining in human CSF” value was “no detectable”.
